From patent US8455475B2 (Gruenenthal GmbH, priority 2009, dated 2013)

Tests used:
[1] = biological target: T1, human B1R (bradykinin receptor 1) (Homo sapiens, UniProt P46663); experiment: FLIPR Ca2+ assay (Fluo-4) on CHO K1 cells stably transfected with the human B1R gene (hB1R cells): % inhibition at 10 μM / IC50, agonist Lys-Des-Arg9-bradykinin; type: cell-based; conditions: for inhibition at 10 µM: CHO-K1, human B1R
T1 construct: expressed in transfected cells; host or cells: CHO K1 cells
T1 sequence (P46663 1-353): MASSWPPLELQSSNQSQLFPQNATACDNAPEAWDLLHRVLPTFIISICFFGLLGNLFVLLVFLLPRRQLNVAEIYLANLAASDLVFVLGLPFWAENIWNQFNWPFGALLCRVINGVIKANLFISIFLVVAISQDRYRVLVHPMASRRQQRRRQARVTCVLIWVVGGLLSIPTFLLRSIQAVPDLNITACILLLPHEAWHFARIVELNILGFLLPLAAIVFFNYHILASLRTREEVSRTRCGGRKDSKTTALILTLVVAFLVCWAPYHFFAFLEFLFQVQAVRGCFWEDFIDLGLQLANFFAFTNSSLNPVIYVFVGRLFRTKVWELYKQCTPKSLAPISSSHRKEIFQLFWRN
In short: (§1)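 Using a two-addition FLIPR protocol, compound (10 μM for % values; concentration series for IC50) was preincubated 10–20 min with Fluo-4-loaded B1R-expressing CHO K1 cells before EC80 agonist challenge. Suppression of Ca2+ inflow, read as peak fluorescence, is expressed relative to maximum achievable inhibition; duplicate/triplicate, ≥2 independent experiments.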

[2] = biological target: T2, rat B1R (bradykinin receptor 1) (Rattus norvegicus, UniProt P97583); experiment: FLIPR Ca2+ assay (Fluo-4) on CHO K1 cells stably transfected with the B1R gene of the rat (rB1R cells): % inhibition at 10 μM / IC50, agonist Des-Arg9-bradykinin; type: cell-based; conditions: for inhibition at 10 µM: CHO-K1, rat B1R
T2 construct: expressed in transfected cells; host or cells: CHO K1 cells
T2 sequence (P97583 1-337): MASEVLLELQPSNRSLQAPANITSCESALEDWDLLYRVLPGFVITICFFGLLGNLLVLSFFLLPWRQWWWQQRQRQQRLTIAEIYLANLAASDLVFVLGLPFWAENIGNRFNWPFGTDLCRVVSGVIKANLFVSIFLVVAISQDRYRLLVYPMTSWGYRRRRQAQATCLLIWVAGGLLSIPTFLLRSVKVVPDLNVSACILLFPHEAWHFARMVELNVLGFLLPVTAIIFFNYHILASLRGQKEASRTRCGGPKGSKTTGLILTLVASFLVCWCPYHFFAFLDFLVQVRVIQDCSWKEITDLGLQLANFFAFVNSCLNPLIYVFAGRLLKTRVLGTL
In short: as §1

Structure (SMILES)	inhibition at 10 µM [1] [%]	inhibition at 10 µM [2] [%]	% Inhibition (human B1R) at 10 μM ([1]; human B1R) [%]	% Inhibition (rat B1R) at 10 μM ([2]; rat B1R, 10 µM) [%]
Cc1ccc(F)c(C(=O)NC2c3cc(C(=O)N4CCC5(CC4)CCN(c4ccncc4)CC5)ccc3CC2(C)C)c1Cl (stereo not shown) [IND_CC-216, 2-Chloro-N-[2,2-dimethyl-6-(9-pyridin-4-yl-3,9-diazaspiro[5.5]undecane-3-carbonyl)-1,3-dihydro-inden-1-yl]-6-fluoro-3-methyl-benzamide]	58	103	–	–
COc1cc(C)c(S(=O)(=O)NC2CCc3ccc(C(=O)N4CCC5(CC4)CCN(c4ccncc4)CC5)cc32)c(C)c1 (stereo not shown) [Ind_CC-001, 4-methoxy-2,6-dimethyl-N-[6-(9-pyridin-4-yl-3,9-diazaspiro[5.5]undecane-3-carbonyl)-2,3-dihydro-1H-inden-1-yl]-benzenesulfonic acid amide]	99	98	–	–
O=C(NC1CCc2ccc(C(=O)N3CCC4(CCN(c5ccncc5)CC4)C3)cc21)c1ccccc1Cl (stereo not shown) [Ind_CC-100, 2-chloro-N-[6-(8-pyridin-4-yl-2,8-diazaspiro[4.5]decane-2-carbonyl)-2,3-dihydro-1H-inden-1-yl]-benzamide]	100	104	–	–
O=C(c1ccc2c(c1)C(NS(=O)(=O)Cc1ccccc1C(F)(F)F)CC2)N1CCC2(CC1)CCN(c1ccncc1)CC2 (stereo not shown) [IND_CC-236, N-[6-(9-Pyridin-4-yl-3,9-diazaspiro[5.5]undecane-3-carbonyl)-2,3-dihydro-1H-inden-1-yl]-1-[2-(trifluoromethyl)-phenyl]-methanesulfonic acid amide]	98	96	–	–
CC1(C)CC(NC(=O)c2ccccc2C(F)(F)F)c2cc(C(=O)N3CCC4(CC3)CCN(c3ccncc3)CC4)ccc21 (stereo not shown) [Ind_CC-058, N-[3,3-dimethyl-6-(9-pyridin-4-yl-3,9-diazaspiro[5.5]undecane-3-carbonyl)-1,2-dihydro-inden-1-yl]-2-(trifluoromethyl)-benzamide]	100	101	–	–
CC1(C)CC(NC(=O)c2ccc(F)cc2Cl)c2cc(C(=O)N3CCC4(CC3)CCN(c3ccncc3)CC4)ccc21 (stereo not shown) [IND_CC-276, 2-Chloro-N-[3,3-dimethyl-6-(3-pyridin-4-yl-3,9-diazaspiro[5.5]undecane-9-carbonyl)-1,2-dihydro-inden-1-yl]-4-fluoro-benzamide]	100	107	–	–
O=C(NC1CCc2ccc(C(=O)N3CCC4(CCN(Cc5ccc(F)c(F)c5)CC4)C3)cc21)c1ccccc1Cl (stereo not shown) [IND_CC-542, 2-Chloro-N-[6-[8-[(3,4-difluoro-phenyl)-methyl]-2,8-diazaspiro[4.5]decane-2-carbonyl]-2,3-dihydro-1H-inden-1-yl]-benzamide]	27	104	–	–
CC1(C)CC(NC(=O)c2ccc(Cl)cc2Cl)c2cc(C(=O)N3CCC4(CC3)CCN(c3ccncc3)CC4)ccc21 (stereo not shown) [Ind_CC-059, 2,4-dichloro-N-[3,3-dimethyl-6-(9-pyridin-4-yl-3,9-diazaspiro[5.5]undecane-3-carbonyl)-1,2-dihydro-inden-1-yl]-benzamide]	100	102	–	–
Cc1cccc(Cl)c1S(=O)(=O)NC1c2cc(C(=O)N3CCC4(CC3)CCN(c3ccncc3)CC4)ccc2CC1(C)C (stereo not shown) [IND_CC-240, 2-Chloro-N-[2,2-dimethyl-6-(9-pyridin-4-yl-3,9-diazaspiro[5.5]undecane-3-carbonyl)-1,3-dihydro-inden-1-yl]-6-methyl-benzenesulfonic acid amide]	95	99	–	–
O=C(NC1CCc2ccc(C(=O)N3CCC4(CC3)CCN(c3ccncc3)C4)cc21)c1ccc(Cl)s1 (stereo not shown) [Ind_CC-043, 5-chloro-N-[6-(2-pyridin-4-yl-2,8-diazaspiro[4.5]decane-8-carbonyl)-2,3-dihydro-1H-inden-1-yl]-thiophene-2-carboxylic acid amide]	79	88	–	–
O=C(NC1CCc2ccc(C(=O)N3CCC4(CC3)CCN(c3ccncc3)C4)cc21)c1ccccc1Cl (stereo not shown) [IND_CC-271, 2-Chloro-N-[6-(2-pyridin-4-yl-2,8-diazaspiro[4.5]decane-8-carbonyl)-2,3-dihydro-1H-inden-1-yl]-benzamide]	–	–	100	106
O=C(c1ccc2c(c1)C(NS(=O)(=O)c1ccccc1Cl)CC2)N1CCC2(CC1)CCN(c1ccncc1)CC2 (stereo not shown) [Ind_CC-010, 2-chloro-N-[6-(9-pyridin-4-yl-3,9-diazaspiro[5.5]undecane-3-carbonyl)-2,3-dihydro-1H-inden-1-yl]-benzenesulfonic acid amide]	97	100	–	–
O=C(c1ccc2c(c1)C(NS(=O)(=O)Cc1ccccc1C(F)(F)F)CC2)N1CCC2(CC1)CCN(c1ccncc1)C2 (stereo not shown) [IND_CC-237, N-[6-(2-Pyridin-4-yl-2,8-diazaspiro[4.5]decane-8-carbonyl)-2,3-dihydro-1H-inden-1-yl]-1-[2-(trifluoromethyl)-phenyl]-methanesulfonic acid amide]	100	98	–	–
CC1(C)Cc2ccc(C(=O)N3CCC4(CC3)CCN(c3ccncc3)CC4)cc2C1NC(=O)c1cc(F)c(F)cc1Cl (stereo not shown) [IND_CC-231, 2-Chloro-N-[2,2-dimethyl-6-(9-pyridin-4-yl-3,9-diazaspiro[5.5]undecane-3-carbonyl)-1,3-dihydro-inden-1-yl]-4,5-difluoro-benzamide]	100	102	–	–
Cc1ccc(F)c(C(=O)NC2CCc3ccc(C(=O)N4CCC5(CC4)CCN(c4ccncc4)C5)cc32)c1Cl (stereo not shown) [IND_CC-215, 2-Chloro-6-fluoro-3-methyl-N-[6-(2-pyridin-4-yl-2,8-diazaspiro[4.5]decane-8-carbonyl)-2,3-dihydro-1H-inden-1-yl]-benzamide]	48	103	–	–
COc1ccc(C(=O)NC2CCc3ccc(C(=O)N4CCC5(CCN(c6ccncc6)CC5)C4)cc32)c(Cl)c1 (stereo not shown) [IND_CC-247, 2-Chloro-4-methoxy-N-[6-(8-pyridin-4-yl-2,8-diazaspiro[4.5]decane-2-carbonyl)-2,3-dihydro-1H-inden-1-yl]-benzamide]	99	102	–	–

The remaining lines, values ahead:

inhibition at 10 µM [1] [%]	inhibition at 10 µM [2] [%]	% Inhibition (human B1R) at 10 μM ([1]; human B1R) [%]	% Inhibition (rat B1R) at 10 μM ([2]; rat B1R, 10 µM) [%]	Structure (SMILES)
100	104	–	–	O=C(N[C@@H]1CCOc2c(F)cc(C(=O)N3CCC4(CC3)CCN(c3ccncc3)CC4)cc21)c1ccccc1Cl [Example H-78]
100	102	–	–	CC(C)(C(=O)N[C@@H]1CCc2ccc(C(=O)N3CCC4(CCN(c5ccncc5)CC4)C3)cc21)c1ccccc1Cl [Example H-146, 2-(2-Chlorophenyl)-2-methyl-N-[(1R)-6-(8-pyridin-4-yl-3,8-diazaspiro[4.5]decane-3-carbonyl)-2,3-dihydro-1H-inden-1-yl]-propionamide]
100	104	–	–	COc1ccc(S(=O)(=O)N[C@@H]2CCc3ccc(C(=O)N4CCC5(CCN(c6ccncc6)CC5)C4)cc32)c(C)c1 [Example H-147, 4-Methoxy-2-methyl-N-[(1R)-6-(8-pyridin-4-yl-3,8-diazaspiro[4.5]decane-3-carbonyl)-2,3-dihydro-1H-inden-1-yl]-benzenesulfonic acid amide]
100	102	–	–	O=C(N[C@@H]1CCc2ccc(C(=O)N3CCC4(CCN(c5ccncc5)CC4)C3)cc21)c1c(Cl)cccc1C(F)(F)F [Example H-76, 2-Chloro-N-[(1R)-6-(8-pyridin-4-yl-3,8-diazaspiro[4.5]decane-3-carbonyl)-2,3-dihydro-1H-inden-1-yl]-6-(trifluoromethyl)-benzamide]
59	11	–	–	O=C(c1ccc2c(c1)[C@@H](N1Cc3cccc(Cl)c3C1=O)CCC2)N1CCC2(CCN(c3ccncc3)CC2)C1 [Example H-15, 7-chloro-2-[(1S)-7-(8-pyridin-4-yl-3,8-diazaspiro[4.5]decane-3-carbonyl)-1,2,3,4-tetrahydro-naphthalen-1-yl]-2,3-dihydro-isoindol-1-one]
94	100	–	–	Cc1cc(OC(F)(F)F)ccc1C(=O)N[C@@H]1CCc2ccc(C(=O)N3CCC4(CCN(c5ccncc5)CC4)C3)cc21 [Example H-74, 2-Methyl-N-[(1R)-6-(8-pyridin-4-yl-3,8-diazaspiro[4.5]decane-3-carbonyl)-2,3-dihydro-1H-inden-1-yl]-4-(trifluoromethyloxy)-benzamide]
80	101	–	–	O=C(N[C@@H]1CCc2ccc(C(=O)N3CCC4(CCC(c5cccnc5)CC4)C3)cc21)c1ccccc1Cl (stereo partly drawn) [Example H-135, 2-Chloro-N-[(1R)-6-(8-pyridin-3-yl-3-azaspiro[4.5]decane-3-carbonyl)-2,3-dihydro-1H-inden-1-yl]-benzamide]
